Read-outs that look alike come from different tables or passages of the source.
Target: T1, human somatostatin receptor subtype 5 (Homo sapiens, UniProt P35346)
T1 construct: expressed in transfected cells
Test: cAMP assay for SST5R (inhibition of cAMP in CHO-K1 cells)
Assay type: cell-based
Conditions: inhibition of cAMP via human SST5 receptor, read-out: SST5 potency
Text: General overview: All five SSTR subtypes are Gi coupled G-protein coupled receptors (GPCRs) that lead to decreases in intracellular cyclic AMP (cAMP) when activated by an agonist. Therefore, measurement of intracellular cAMP levels can be used to assess whether compounds of the invention are agonists of SSTR subtypes (John Kelly, Troy Stevens, W. Joseph Thompson, and Roland Seifert, Current Protocols in Pharmacology, 2005, 2.2.1-2.2). One example of an intracellular cAMP assay is described below.
cAMP Assay Protocol for SST5R:
Four days prior to the assay, 2,000 Chinese hamster ovary cells (CHO-K1, ATCC #CCL-61) stably expressing the human somatostatin receptor subtype 5 are plated in each well of a 96-well tissue culture-treated plate in Ham's F12 growth media (ThermoFisher #10-080-CM) supplemented with 10% donor bovine serum (Gemini Bio-Products #100-506), 100 U/mL penicillin; 100 µg/mL streptomycin; 2 mM L-glutamine (Gemini Bio-Products #400-110) and 0.25 mg/mL G418 Sulfate (GoldBio #108321-42-2). The cells are cultured at 37° C., 5% CO2 and 95% humidity. On the day of the assay, the media is aspirated and the cells are treated with 50 μL of 1.6 μM NKH477 (Sigma #N3290) plus various dilutions of compounds of the invention in assay buffer [1× Hank's Balanced Salt Solution (ThermoFisher #SH3058802), 0.5 mM HEPES pH 7.4, 0.1% bovine serum albumin, 0.2 mM 3-Isobutyl-1-methylxanthine (IBMX, VWR #200002-790)]. The cells are incubated for 20 minutes at 37° C. […] The cells are treated with 50 μL of lysis buffer (HRTF cAMP kit, Cisbio) for 30 minutes and then the lysate is diluted to 250 μL with assay buffer. The lysate is transferred to 384-well plates and cAMP detection and visualization antibodies are added and incubated for 1-24 hours at room temperature. The time-resolved fluorescent signal is read with a Tecan M1000Pro multiplate reader. The intracellular cAMP concentrations are calculated by regression to a standard curve and are plotted vs. the concentration of the compounds of the invention and the EC50 of the compounds are calculated using standard methods. All data manipulations are in GraphPad Prism v6 or v7.

T1 sequence (P35346 whole entry): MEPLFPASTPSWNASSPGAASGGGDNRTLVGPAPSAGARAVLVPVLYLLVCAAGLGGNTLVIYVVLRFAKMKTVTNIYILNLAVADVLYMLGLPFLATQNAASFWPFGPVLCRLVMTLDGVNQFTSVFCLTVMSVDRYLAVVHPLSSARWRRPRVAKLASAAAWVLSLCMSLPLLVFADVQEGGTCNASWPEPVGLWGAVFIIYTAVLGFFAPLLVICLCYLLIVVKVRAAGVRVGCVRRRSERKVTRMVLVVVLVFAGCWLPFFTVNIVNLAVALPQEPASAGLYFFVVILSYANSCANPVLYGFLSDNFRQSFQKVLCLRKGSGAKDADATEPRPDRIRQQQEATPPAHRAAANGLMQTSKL

| Molecule | EC50 (Table A) | EC50 (Table B) |
| --- | --- | --- |
| C[C@@H](NC(=O)c1cncc(-c2cc(F)cc(F)c2)c1N1CC[C@](C)(N)C1)C(F)(F)F [1-53, 4-[(3S)-3-amino-3-methylpyrrolidin-1-yl]-5-(3,5-difluorophenyl)-N-[(2R)-1,1,1-trifluoropropan-2-yl]pyridine-3-carboxamide] | < 10 nM | – |
| Cc1cccc2[nH]c(-c3cncc(C(=O)N4C[C@@H](C)O[C@@H](C)C4)c3N3CC[C@](C)(N)C3)nc12 [2-28, (3S)-1-{3-[(2R,6S)-2,6-dimethylmorpholine-4-carbonyl]-5-(4-methyl-1H-1,3-benzodiazol-2-yl)pyridin-4-yl}-3-methylpyrrolidin-3-amine] | 10 to 100 nM | – |
| Cc1ncc(C(=O)N[C@@H](C)c2ccccn2)c(N2CC[C@](C)(N)C2)c1-c1cc(F)cc(Cl)c1 [1-243, 4-[(3S)-3-amino-3-methylpyrrolidin-1-yl]-5-(3-chloro-5-fluorophenyl)-6-methyl-N-[(1S)-1-(pyridin-2-yl)ethyl]pyridine-3-carboxamide] | < 10 nM | – |
| CC(C)C(C)NC(=O)c1cncc(-c2cc(F)cc(F)c2)c1N1CC[C@](C)(N)C1 (stereo partly drawn) [1-38, 4-[(3S)-3-amino-3-methylpyrrolidin-1-yl]-5-(3,5-difluorophenyl)-N-(3-methylbutan-2-yl)pyridine-3-carboxamide] | < 10 nM | – |
| C[C@]1(N)CCN(c2c(C(=O)NC3CC3)cncc2-c2cc(F)cc(F)c2)C1 [1-23, 4-[(3S)-3-amino-3-methylpyrrolidin-1-yl]-N-cyclopropyl-5-(3,5-difluorophenyl)pyridine-3-carboxamide] | 10 to 100 nM | – |
| CC(N)C1CN(c2c(C(=O)NC34CC(C3)C4)cncc2-c2cc(F)cc(F)c2)C1 (centres unmarked) [1-63, 4-[3-(1-aminoethyl)azetidin-1-yl]-N-{bicyclo[1.1.1]pentan-1-yl}-5-(3,5-difluorophenyl)pyridine-3-carboxamide] | 10 to 100 nM | – |
| CN(CC1CC1)C(=O)c1cnc(C#N)c(-c2cc(F)cc(F)c2)c1N1CC[C@](C)(N)C1 [1-218, 4-[(3S)-3-amino-3-methylpyrrolidin-1-yl]-6-cyano-N-(cyclopropylmethyl)-5-(3,5-difluorophenyl)-N-methylpyridine-3-carboxamide] | 100 to 1000 nM | – |
| C[C@]1(N)CCN(c2c(C(=O)NC3CCCC3)ccnc2-c2cc(F)cc(F)c2)C1 [3-8, 3-[(3S)-3-amino-3-methylpyrrolidin-1-yl]-N-cyclopentyl-2-(3,5-difluorophenyl)pyridine-4-carboxamide] | 10 to 100 nM | – |
| Cc1cc(F)cc(-c2cncc(C(=O)Nc3ccn(C)n3)c2N2CC[C@](C)(N)C2)c1 [1-27, 4-[(3S)-3-amino-3-methylpyrrolidin-1-yl]-5-(3-fluoro-5-methylphenyl)-N-(1-methyl-1H-pyrazol-3-yl)pyridine-3-carboxamide] | < 10 nM | – |
| Cn1cc(CNC(=O)c2cnc(C#N)c(-c3cc(F)cc(F)c3)c2N2CC[C@](C)(N)C2)cn1 [1-107, 4-[(3S)-3-amino-3-methylpyrrolidin-1-yl]-6-cyano-5-(3,5-difluorophenyl)-N-[(1-methyl-1H-pyrazol-4-yl)methyl]pyridine-3-carboxamide] | 10 to 100 nM | – |
| Cn1ccnc1CNC(=O)c1cnc(C#N)c(-c2cc(F)cc(F)c2)c1N1CC[C@](C)(N)C1 [1-106, 4-[(3S)-3-amino-3-methylpyrrolidin-1-yl]-6-cyano-5-(3,5-difluorophenyl)-N-[(1-methyl-1H-imidazol-2-yl)methyl]pyridine-3-carboxamide] | 10 to 100 nM | – |
| C[C@H](NC(=O)c1cnc(C#N)c(-c2cc(F)cc(Cl)c2)c1N1C[C@@H](N)[C@H](F)C1)C1CC1 [1-138, 4-[(3R,4R)-3-amino-4-fluoropyrrolidin-1-yl]-5-(3-chloro-5-fluorophenyl)-6-cyano-N-[(1S)-1-cyclopropylethyl]pyridine-3-carboxamide] | < 10 nM | – |
| COc1ncc(C(=O)NC2CCC(C(F)(F)F)CC2)c(N2CC[C@H](N)C2)c1-c1cc(F)cc(F)c1 (stereo partly drawn) [1-193, 4-[(3S)-3-aminopyrrolidin-1-yl]-5-(3,5-difluorophenyl)-6-methoxy-N-[4-(trifluoromethyl)cyclohexyl]pyridine-3-carboxamide] | 100 to 1000 nM | – |
| N-(adamantan-1-yl)-3-[(3S)-3-amino-3-methylpyrrolidin-1-yl]-2-(3,5-difluorophenyl)pyridine-4-carboxamide [3-7] | 10 to 100 nM | – |
| Cc1cccc2[nH]c(-c3cncc(C(=O)NC4CCOC4)c3N3CC[C@](C)(N)C3)nc12 (stereo partly drawn) [2-5, 4-[(3S)-3-amino-3-methylpyrrolidin-1-yl]-5-(4-methyl-1H-1,3-benzodiazol-2-yl)-N-(oxolan-3-yl)pyridine-3-carboxamide] | 100 to 1000 nM | – |
| Cc1cccc2[nH]c(-c3cncc(C(=O)N4CCc5ccccc54)c3N3CC[C@](C)(N)C3)nc12 [2-34, (3S)-1-[3-(2,3-dihydro-1H-indole-1-carbonyl)-5-(4-methyl-1H-1,3-benzodiazol-2-yl)pyridin-4-yl]-3-methylpyrrolidin-3-amine] | 10 to 100 nM | – |
| CC(C)C(NC(=O)c1cncc(-c2cc(F)cc(F)c2)c1N1CC[C@](C)(N)C1)C(C)C [1-39, 4-[(3S)-3-amino-3-methylpyrrolidin-1-yl]-5-(3,5-difluorophenyl)-N-(2,4-dimethylpentan-3-yl)pyridine-3-carboxamide] | 100 to 1000 nM | – |
| C[C@H](NC(=O)c1cnc(C#N)c(-c2cc(F)cc(Cl)c2)c1N1C[C@H](N)[C@@H](F)C1)C1CC1 (single isomer, unassigned) [1-139] | < 10 nM | – |
| COc1ncc(C(=O)N[C@@H](C)C2CC2)c(N2CC[C@](C)(N)C2)c1-c1cc(F)cc(F)c1 [1-141, 4-[(3S)-3-amino-3-methylpyrrolidin-1-yl]-N-[(1S)-1-cyclopropylethyl]-5-(3,5-difluorophenyl)-6-methoxypyridine-3-carboxamide] | < 10 nM | – |
| C[C@]1(N)CCN(c2c(C(=O)NC3CCC(F)(F)CC3)cnc(C3CC3)c2-c2cc(F)cc(F)c2)C1 [1-281, 4-[(3S)-3-amino-3-methylpyrrolidin-1-yl]-6-cyclopropyl-N-(4,4-difluorocyclohexyl)-5-(3,5-difluorophenyl)pyridine-3-carboxamide] | < 10 nM | – |
| C[C@@H](NC(=O)c1cnc(C#N)c(-c2cc(F)cc(F)c2)c1N1CC[C@@H](N)C1)C(F)(F)F [1-227, 4-[(3R)-3-aminopyrrolidin-1-yl]-6-cyano-5-(3,5-difluorophenyl)-N-[(2R)-1,1,1-trifluoropropan-2-yl]pyridine-3-carboxamide] | 100 to 1000 nM | – |
| CC(C)CNC(=O)c1cncc(-c2cc(F)cc(F)c2)c1N1CC[C@](C)(N)C1 [1-46, 4-[(3S)-3-amino-3-methylpyrrolidin-1-yl]-5-(3,5-difluorophenyl)-N-(2-methylpropyl)pyridine-3-carboxamide] | < 10 nM | – |
| COc1ncc(C(=O)N[C@@H](C)c2ccccn2)c(N2CC[C@](C)(N)C2)c1-c1cc(F)cc(OC(F)F)c1 [1-241, 4-[(3S)-3-amino-3-methylpyrrolidin-1-yl]-5-[3-(difluoromethoxy)-5-fluorophenyl]-6-methoxy-N-[(1S)-1-(pyridin-2-yl)ethyl]pyridine-3-carboxamide] | 10 to 100 nM | 10 to 100 nM |
| Cc1cccc2[nH]c(-c3cncc(C(=O)N4CCC5(CC5)C4)c3N3CC[C@](C)(N)C3)nc12 [2-39, (3S)-1-(3-{5-azaspiro[2.4]heptane-5-carbonyl}-5-(4-methyl-1H-1,3-benzodiazol-2-yl)pyridin-4-yl)-3-methylpyrrolidin-3-amine] | 10 to 100 nM | – |
| Cc1ncc(C(=O)N[C@@H](C)C2CC2)c(N2CC[C@](C)(N)C2)c1-c1cnn(C2CC2)c1 [1-156, 4-[(3S)-3-amino-3-methylpyrrolidin-1-yl]-5-(1-cyclopropyl-1H-pyrazol-4-yl)-N-[(1S)-1-cyclopropylethyl]-6-methylpyridine-3-carboxamide] | 10 to 100 nM | – |
| C[C@]1(N)CCN(c2c(C(=O)N[C@H]3C[C@@H](F)C3)cncc2-c2cc(F)cc(F)c2)C1 [1-59, 4-[(3S)-3-amino-3-methylpyrrolidin-1-yl]-5-(3,5-difluorophenyl)-N-[cis-3-fluorocyclobutyl]pyridine-3-carboxamide] | < 10 nM | – |
| COc1ncc(C(=O)N[C@@H](C)C(F)(F)F)c(N2CC[C@](C)(N)C2)c1Br (single isomer, unassigned) [1-274] | > 1000 nM | – |
| Cc1ncc(C(=O)N[C@@H](C)C(F)(F)F)c(N2CC[C@](C)(N)C2)c1-c1cc(F)cc(F)c1 [1-147, 4-[(3S)-3-amino-3-methylpyrrolidin-1-yl]-5-(3,5-difluorophenyl)-6-methyl-N-[(2S)-1,1,1-trifluoropropan-2-yl]pyridine-3-carboxamide] | < 10 nM | – |

Reference: US12600709B2, “Nonpeptide somatostatin type 5 receptor agonists and uses thereof” (Crinetics Pharmaceuticals, Inc., priority 2019, dated 2026)
